One assay concerns IL-12. Put plainly: LPS-induced IL-12 release in primary microglia, LUMINEX immunoassay. Conditions: diapocynin 10 μM, LPS 24 hr. It is filed as cell-based, mouse. The procedure:
(§1) Primary microglia were obtained from 1-2 day old C57/b16 mouse pups. Upon collection, whole brains were kept in ice-cold DMEM-F12 medium containing 10% FBS, 1× sodium pyruvate, 1× NEAAs, 100 units pen/strep, and Q. After collection, the brains were placed in 0.25% trypsin-EDTA and incubated at 37° C., with gentle shaking every 5-10 min. After 30 min, the trypsin was removed, and the brains are washed in warmed medium twice. After washing, medium was added to the brains, and the brains were homogenized using gentle pipetting, starting with a 25 ml pipette and moving to smaller pipette tips as the brains were broken up. When the brains were sufficiently homogenized to a single-cell suspension, they were filtered with a 70 μm nylon filter, which allowed microglia and astrocytes to be collected. The resultant cell suspension was plated in T-75 flasks and allowed to grow for 12-14 days at 37° C., 5% CO2. […]
(§2) Cytokine levels of BV2 and microglial cells treated with diapocynin were determined by LUMINEX® multiplex immunoassay. […]
(§3) Cytokine standards and controls were adjusted to 40 μl volume and the LUMINEX® Samples were run on a LUMINEX® 200 Total System and analyzed with Multiplex Analysis—LUMINEX® Software (Invitrogen, Carlsbad, Calif.).

A further assay relates to IBA-1. Put plainly: IBA-1 expression in substantia nigra (microglial activation), immunostaining. It is filed as in vivo, C57BL/6 mice. The note with it: diapocynin 300 mg/kg gavage, 1 day pre-treatment + 4 days co-treatment with MPTP 25 mg/kg i.p. The procedure:
For checking inflammatory and oxidative stress markers, mice were gavaged diapocynin (300 mg/kg dose) 1 day before MPTP treatment (pre-treatment) and continued for another 4 days of co-treatment with MPTP. In the sub-acute MPTP regimen, MPTP (25 mg/kg) was injected intraperitoneally once per day from day 2 to day 7. Control mice received saline at the same dosage.
Four days after MPTP treatment, mice were perfused with 4% paraformaldehyde (PFA) and post-fixed with PFA and 30% sucrose, respectively. Next, fixed brains were cut into 30 μm sections and kept in 30% sucrose-ethylene glycol solutions at −20° C. On the day of staining, sections were rinsed with phosphate-buffered saline (PBS) and incubated with different primary antibodies, including anti-IBA-1 (DAKO, Carpinteria, Calif.), anti-GFAP (Millipore, Billerica, Mass.), anti-iNOS (Santa Cruz Biotechnology, Santa Cruz, Calif.), anti-3NT (Millipore), anti-4HNE (R&D Systems, Minneapolis, Minn.) and anti-gp91phox (Santa Cruz Biotechnology) for overnight at 4° C. Appropriate secondary antibodies (Alexa Fluor 488, 594, or 555 from Invitrogen, Carlsbad, Calif.) were used followed by incubation with 10 μg/ml Hoechst 33342 for 5 min at room temperature to stain the nucleus. Sections were viewed under a Nikon inverted fluorescence microscope (model TE-2000U; Nikon, Tokyo, Japan). […]

For a further assay, the system named is MPTP-intoxicated mice. Briefly: Rotarod in MPTP-injected mice. In kind it is in vivo, C57BL/6 mice. Conditions: 20 rpm; MPTP- and diapocynin-treated mice; 300 mg/kg oral gavage; 5 days after last MPTP injection. The method, then: Six- to 8-week-old C57BL/6 mice weighing 24 to 28 g were housed in standard conditions of constant temperature (22±1° C.), humidity (relative, 30%), and a 12-h light/dark cycle. Mice were allowed free access to food and water. Use of the animals and protocol procedures were approved and supervised by the Committee on Animal Care at Iowa State University (Ames, Iowa). For neurodegeneration studies, mice either received diapocynin (300 mg/kg dose) by oral gavage for 1 day (pre-treatment before MPTP administration), 5 days (co-treatment with MPTP), or 7 days (post-treatment after MPTP).
Two types of behavioral tests were performed including an Open Field experiment for testing locomotor activities and a Rotarod experiment to test coordination of movement of mice after MPTP and diapocynin treatment (48, 56). An Open Field activity monitor (model RXYZCM-16; AccuScan, Columbus, Ohio) was used to measure the spontaneous activity of mice. The activity chamber was 40×40×30.5 cm, made of clear PLEXIGLAS® and covered with a PLEXIGLAS® lid with holes for ventilation. Infrared monitoring sensors were located every 2.54 cm along the perimeter (16 infrared beams along each side) and 2.5 cm above the floor. Two additional sets of 16 sensors were located 8.0 cm above the floor on opposite sides. Data were collected and analyzed by a VersaMax Analyzer (model CDA-8, AccuScan). […]

The subject of another assay is IL-10. Put plainly: LPS-induced IL-10 release in primary microglia, LUMINEX immunoassay. It is filed as cell-based, mouse. Conditions: diapocynin 10 μM, LPS 24 hr. The procedure:
as §1, §2, §3

Turning to `COc1cc(C(C)=O)cc(-c2cc(C(C)=O)cc(OC)c2O)c1O` [diapocynin], the “blocking LPS-induced release of IL-12” value in the assay with IL-12 is on record as “very effective”. Besides, the “IBA-1 protein expression in substantia nigra” value in the assay with IBA-1 was “inhibition”. The “decrease in time spent on Rotarod compared to control mice” value with MPTP-intoxicated mice was less than 25%. Further, in the assay on IL-10, the “blocking LPS-induced release of IL-10” value is listed as “very effective”.

(Values after patent US8962600B2, “Neuroprotective compounds and their use” (The Medical College of Wisconsin, Inc., priority 2009, dated 2015).)
